Reference: US20240400571A1, “5,6 UNSATURATED BICYCLIC HETEROCYLES USEFUL AS INHIBITORS OF NOD-LIKE RECEPTOR PROTEIN 3” (Merck Sharp & Dohme LLC, priority 2023, published 2024)

Target: T1, NLRP3 inflammasome (Homo sapiens, UniProt Q96P20)
T1 construct: host or cells: THP-1 human monocytic cells, treated with PMA and stimulated with gramicidin
Experiment: ASC-SPECK formation in THP-1 cells after gramicidin stimulation (NLRP3 inflammasome activation)
Assay type: cell-based
Settings: PMA-treated human monocytic THP-1 cells; compound 1 h before 12.5 μg/ml gramicidin, 3-hour treatment; ASC SPECK imaging; read-out: EC50 values (nM) for Examples that inhibit NLRP3 inflammasome activation
Protocol: The ability of compounds to inhibit NLRP3 inflammasome activation was determined in vitro by monitoring formation of the ASC-SPECK in human monocytic THP-1 cells after stimulation. THP-1 cells (ATCC catalog #TIB-202) were maintained in complete growth media containing Roswell Park Memorial Institute RPMI (ATCC catalog #30-2001), 10% heat inactivated fetal bovine serum, 1× penicillin/streptomycin and 0.05 mM 2-mercaptoethanol. At the start of the assay, undifferentiated THP-1 cells were plated at a density of 20,000 cells per well in a 384-well plate (Poly-D-lysine coated Cell Carrier Ultra microplate, Perkin Elmer catalog #6057500) in complete growth media supplemented with 10 ng/ml phorbol 12-myristate 13-acetate (PMA; Sigma catalog #P8139), and then incubated overnight. The next day, media was replaced with assay media [RPMI (Gibco catalog #11875-093), 0.01% bovine serum albumin (BSA)]. Compounds were serially diluted in DMSO and then added to wells one hour prior to the addition of 12.5 μg/ml Gramicidin (Enzo Lifescience, catalog #ALX-350-233-M005). All incubations were carried out at 37° C. (5% CO2/95% air). Following a 3-hour treatment with gramicidin, cells are fixed with 4% paraformaldehyde and stored at 4° C. until immunofluorescence staining.
Immunofluorescence staining: Anti-ASC antibody (MBL catalog #D086-3) was desalted and labeled with Alexa 488 antibody labeling kit (Thermo catalog #A20181) prior to use as described below. After fixation, the following steps were carried out at room temperature. Cells were first permeabilized with 0.3% Triton X-100 in phosphate-buffered saline (PBS) for 15 minutes and then incubated in blocking buffer containing 5% goat serum, 0.3% tween-20 and 0.03% sodium azide in PBS for 1 hour. Cells were stained with a mixture of ASC-Alexa 488 antibody (diluted 1:200 in blocking buffer) and nuclear stain DRAQ5 (1:5000 in blocking buffer, Thermo catalog #62251) in blocking buffer for 1 hour. Following a wash with 0.3% Tween-20 in PBS, plates were imaged with an Opera Phenix High Content Screening System. The number of DRAQ5 positive cells containing ASC SPECKS were quantified in each well.
Data analysis: EC50 values were calculated by standard curve-fitting analysis using an internally developed program in TIBCO Spotfire software.

T1 sequence (Q96P20 whole entry): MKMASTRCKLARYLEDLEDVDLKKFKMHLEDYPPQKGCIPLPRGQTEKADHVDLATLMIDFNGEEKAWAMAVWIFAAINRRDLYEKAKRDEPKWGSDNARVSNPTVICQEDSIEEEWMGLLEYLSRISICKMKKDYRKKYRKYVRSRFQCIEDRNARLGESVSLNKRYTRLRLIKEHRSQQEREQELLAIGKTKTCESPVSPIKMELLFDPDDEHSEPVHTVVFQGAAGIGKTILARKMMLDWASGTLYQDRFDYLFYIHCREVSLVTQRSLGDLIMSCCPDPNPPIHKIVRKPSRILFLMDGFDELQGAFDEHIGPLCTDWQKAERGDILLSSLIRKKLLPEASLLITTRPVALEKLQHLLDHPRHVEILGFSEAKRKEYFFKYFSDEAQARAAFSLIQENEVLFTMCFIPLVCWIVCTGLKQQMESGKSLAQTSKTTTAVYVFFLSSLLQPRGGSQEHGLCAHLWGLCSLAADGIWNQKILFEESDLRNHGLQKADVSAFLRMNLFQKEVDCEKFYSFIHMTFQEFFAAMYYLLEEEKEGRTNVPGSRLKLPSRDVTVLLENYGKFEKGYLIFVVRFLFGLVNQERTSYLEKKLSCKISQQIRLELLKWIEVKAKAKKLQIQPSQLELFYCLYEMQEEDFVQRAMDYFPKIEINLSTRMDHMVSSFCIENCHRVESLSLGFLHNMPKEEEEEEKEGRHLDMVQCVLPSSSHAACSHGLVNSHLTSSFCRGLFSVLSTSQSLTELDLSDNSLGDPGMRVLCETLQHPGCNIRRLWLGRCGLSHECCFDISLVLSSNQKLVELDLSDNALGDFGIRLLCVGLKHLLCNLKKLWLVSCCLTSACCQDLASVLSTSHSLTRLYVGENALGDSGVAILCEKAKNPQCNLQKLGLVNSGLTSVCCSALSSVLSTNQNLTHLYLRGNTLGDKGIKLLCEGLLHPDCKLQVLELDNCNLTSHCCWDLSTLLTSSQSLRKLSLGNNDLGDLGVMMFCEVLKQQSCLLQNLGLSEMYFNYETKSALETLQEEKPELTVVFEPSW

| Structure (SMILES) | EC50 [nM] |
| --- | --- |
| CCN1CCC[C@@H](n2cnc3cc(-c4c(C)cc(C(F)(F)F)cc4O)nnc32)C1 [Example 3, (R)-2-(7-(1-ethylpiperidin-3-yl)-7H-imidazo[4,5-c]pyridazin-3-yl)-3-methyl-5-(trifluoromethyl)phenol] | 21 |
| Cc1cc(C(F)(F)F)cc(O)c1-c1cc2ncn(C3CCCN(C)C3)c2nn1 (racemic) [Example 4, (R and S)-3-methyl-2-(7-(1-methylpiperidin-3-yl)-7H-imidazo[4,5-c]pyridazin-3-yl)-5-(trifluoromethyl)phenol] | 91 |
| Cc1c(-c2ccc(C(F)(F)F)cc2O)nnc2c1ncn2C12CCCC(N)(C1)C2 [Example 32, 2-(7-(5-aminobicyclo[3.1.1]heptan-1-yl)-4-methyl-7H-imidazo[4,5-c]pyridazin-3-yl)-5-(trifluoromethyl)phenol] | 47 |
| CCN1CC[C@@H](O)[C@@H](n2cnc3c(C)c(-c4ccc(C(F)(F)F)cc4O)nnc32)C1 [Example 12, (3S,4R)-1-ethyl-3-(3-(2-hydroxy-4-(trifluoro-methyl)phenyl)-4-methyl-7H-imidazo[4,5-c]pyridazin-7-yl)piperidin-4-ol] | 103 |
| Cc1c(-c2ccc(C(F)(F)F)cc2O)nnc2c1ncn2[C@H]1CC[C@H]2CC[C@@H]1N2C (single isomer, unassigned) [Example 28] | 1410 |
| Cc1c(-c2ccc(C(F)(F)F)cc2O)nnc2c1ncn2[C@@H]1CC[C@@H]2CC[C@H]1N2C (single isomer, unassigned) [Example 29] | 26 |
| CCN1[C@H]2CC[C@@H]1[C@H](n1cnc3c(C)c(-c4ccc(C(F)(F)F)cc4O)nnc31)CC2 (single isomer, unassigned) [Example 30] | 9 |
| Cc1c(-c2ccc(C(F)(F)F)cc2O)nnc2c1ncn2[C@H]1CC[C@H]2CC[C@@H]1N2 (single isomer, unassigned) [Example 25] | 1010 |
| Cc1c(-c2ccc(C(F)(F)F)cc2O)nnc2c1ncn2[C@H]1CN(C)CC[C@H]1O [Example 11, (3S,4R)-3-(3-(2-hydroxy-4-(trifluoro-methyl)phenyl)-4-methyl-7H-imidazo[4,5-c]pyridazin-7-yl)-1-methylpiperidin-4-ol] | 147 |
| Cc1c(-c2ccc(C(F)(F)F)cc2O)nnc2c1ncn2[C@@H]1CC[C@@H]2CC[C@H]1N2 (single isomer, unassigned) [Example 24] | 130 |
| CCN1[C@@H]2CC[C@H]1[C@@H](n1cnc3c(C)c(-c4ccc(C(F)(F)F)cc4O)nnc31)CC2 (single isomer, unassigned) [Example 31] | 889 |
| Cc1c(-c2ccc(C3CC3)c(F)c2O)nnc2c1ncn2[C@@H]1CCCN(C)C1 [Example 27, (R)-3-cyclopropyl-2-fluoro-6-(4-methyl-7-(1-methylpiperidin-3-yl)-7H-imidazo-[4,5-c]pyridazin-3-yl)phenol] | 1530 |
| Cc1c(-c2ccc3c(c2O)CC(F)(F)C3)nnc2c1ncn2[C@@H]1CCCN(C)C1 [Example 21, (R)-2,2-difluoro-5-(4-methyl-7-(1-methylpiperidin-3-yl)-7H-imidazo[4,5-c]pyridazin-3-yl)-2,3-dihydro-1H-inden-4-ol] | 996 |
| Cc1c(-c2ccc(C(F)(F)F)cc2O)nnc2c1nc(C)n2[C@@H]1CCCN(C)C1 [Example 14, (R)-2-(4,6-dimethyl-7-(1-methylpiperidin-3-yl)-7H-imidazo[4,5-c]pyridazin-3-yl)-5-(trifluoromethyl)phenol] | 567 |
| CCN1CCC[C@@H](n2cnc3c(C)c(-c4ccc(C(F)(F)F)cc4OC(F)F)nnc32)C1 [Example 9, (R)-3-(2-(difluoromethoxy)-4-(trifluoromethyl)phenyl)-7-(1-ethylpiperidin-3-yl)-4-methyl-7H-imidazo[4,5-c]pyridazine] | 699 |
| CN1CCCC(n2cnc3cc(-c4ccc(C(F)(F)F)cc4O)nnc32)C1 (racemic) [Example 8, (R and S)-2-(7-(1-methylpiperidin-3-yl)-7H-imidazo[4,5-c]pyridazin-3-yl)-5-(trifluoromethyl)phenol] | 1000 |

The remaining lines, values ahead:

| EC50 [nM] | Structure (SMILES) |
| --- | --- |
| 320 | Cc1c(-c2ccc(Cl)cc2O)nnc2c1ncn2[C@@H]1CCCNC1 [Example 13, (R)-5-chloro-2-(4-methyl-7-(piperidin-3-yl)-7H-imidazo[4,5-c]pyridazin-3-yl)phenol] |
| 53 | Cc1c(-c2ccc3c(c2O)CCC3)nnc2c1ncn2[C@@H]1CCCNC1 [Example 19, (R)-5-(4-methyl-7-(piperidin-3-yl)-7H-imidazo[4,5-c]pyridazin-3-yl)-2,3-dihydro-1H-inden-4-ol] |
| 1360 | Cc1c(-c2ccc(C(F)(F)F)cc2O)nnc2c1ncn2[C@H]1CCCN2CCC[C@H]12 (single isomer, unassigned) [Example 33] |
| 20 | Cc1c(-c2ccc(C(F)(F)F)cc2O)nnc2c1ncn2[C@@H]1CCCN(C(C)C)C1 [Example 22, (R)-2-(7-(1-isopropylpiperidin-3-yl)-4-methyl-7H-imidazo[4,5-c]pyridazin-3-yl)-5-(trifluoromethyl)phenol] |
| 29 | [2H]C([2H])([2H])N1CCC[C@@H](n2cnc3c(C)c(-c4ccc(C(F)(F)F)cc4O)nnc32)C1 [Example 35, (R)-2-(4-methyl-7-(1-(methyl-d3)piperidin-3-yl)-7H-imidazo[4,5-c]pyridazin-3-yl)-5-(trifluoromethyl)phenol] |
| 87 | Cc1c(-c2ccc(C(F)(F)F)cc2O)nnc2c1ncn2[C@@H]1CCCN2CCC[C@@H]12 (single isomer, unassigned) [Example 34] |
| 112 | Cc1c(-c2ccc(C(F)(F)F)cc2O)nnc2c1ncn2[C@@H]1CCCN(C2CCC2)C1 [Example 23, (R)-2-(7-(1-cyclobutylpiperidin-3-yl)-4-methyl-7H-imidazo[4,5-c]pyridazin-3-yl)-5-(trifluoromethyl)phenol] |
| 143 | Cc1c(-c2ccc(C(F)(F)F)cc2O)nnc2c1ncn2[C@@H]1CCCNC1 [Example 5, (R)-2-(4-methyl-7-(piperidin-3-yl)-7H-imidazo[4,5-c]pyridazin-3-yl)-5-(trifluoromethyl)phenol] |
| 61 | Cc1c(-c2ccc3sccc3c2O)nnc2c1ncn2[C@@H]1CCCN(C)C1 [Example 15, (R)-5-(4-methyl-7-(1-methylpiperidin-3-yl)-7H-imidazo[4,5-c]pyridazin-3-yl)benzo[b]thiophen-4-ol] |
| 23 | Cc1c(-c2ccc3c(c2O)CCC3)nnc2c1ncn2[C@@H]1CCCN(C)C1 [Example 16, (R)-5-(4-methyl-7-(1-methylpiperidin-3-yl)-7H-imidazo[4,5-c]pyridazin-3-yl)-2,3-dihydro-1H-inden-4-ol] |
| 25 | Cc1c(-c2ccc(C(F)(F)F)cc2O)nnc2c1ncn2[C@@H]1CCCN(C)C1 [Example 10, (R)-2-(4-methyl-7-(1-methylpiperidin-3-yl)-7H-imidazo[4,5-c]pyridazin-3-yl)-5-(trifluoromethyl)phenol] |
| 28 | Cc1c(-c2ccc(Cl)cc2O)nnc2c1ncn2[C@@H]1CCCN(C)C1 [Example 17, (R)-5-chloro-2-(4-methyl-7-(1-methylpiperidin-3-yl)-7H-imidazo[4,5-c]pyridazin-3-yl)phenol] |
| 81 | Cc1c(-c2c(O)cc(Cl)cc2F)nnc2c1ncn2[C@@H]1CCCN(C)C1 [Example 26, 5-chloro-3-fluoro-2-(4-methyl-7-((R)-1-methylpiperidin-3-yl)-7H-imidazo-[4,5-c]pyridazin-3-yl)phenol] |
| 550 | Cc1c(-c2ccc(C(F)(F)F)cc2O)nnc2c1ncn2[C@H]1CNCC[C@H]1O [Example 6, (3S,4R)-3-(3-(2-hydroxy-4-(trifluoro-methyl)phenyl)-4-methyl-7H-imidazo[4,5-c]pyridazin-7-yl)piperidin-4-ol] |
| 84 | Cc1ccc(-c2nnc3c(ncn3[C@@H]3CCCN(C)C3)c2C)c(O)c1F [Example 20, (R)-2-fluoro-3-methyl-6-(4-methyl-7-(1-methylpiperidin-3-yl)-7H-imidazo[4,5-c]pyridazin-3-yl)phenol] |
| 13 | CCN1CCC[C@@H](n2cnc3c(C)c(-c4ccc(C(F)(F)F)cc4O)nnc32)C1 [Example 7, (R)-2-(7-(1-ethylpiperidin-3-yl)-4-methyl-7H-imidazo[4,5-c]pyridazin-3-yl)-5-(trifluoromethyl)phenol] |
| 29 | CCN1CCC[C@@H](n2cnc3c(C)c(-c4ccc(Cl)cc4O)nnc32)C1 [Example 18, (R)-5-chloro-2-(7-(1-ethylpiperidin-3-yl)-4-methyl-7H-imidazo[4,5-c]pyridazin-3-yl)phenol] |
